Data published in PMC10447463, “Data-mining unveils structure–property–activity correlation of viral infectivity enhancing self-assembling peptides” (Nature Communications, 2023).
Values joined by “and” are separate entries in the source; they are usually repeats but may differ in a detail not shown here. Equal entries are not always repeated. Where two headings read alike, the source gives them in different places.

Tests used:
[1] = β-sheet content by ATR-FT-IR; assay type: physicochemical
In short: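 In the conversion assay, unconverted peptide passing a 3 kDa membrane at 4 °C was labelled with fluorescamine alongside unfiltered PNF, both in DMSO, and read at 365/470 nm after 20 min at room temperature. β-sheet content relied on ATR FT-IR of lyophilized fibril powder.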

[2] = assay type: physicochemical
In short: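 Fibrils (1 mg/mL solution) were mixed with 50 µM ThT in PBS for 15 min at RT, and fluorescence was read at λex 440/λem 488 nm against a PBS blank, as a triplicate mean ± SD. Zeta potential came from electrophoretic mobility (Smoluchowski) after 1 d aggregation at 1 mg/mL in PBS pH 7.4, diluted into 1 mM KCl.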

[3] = system: HIV-1 infection of TZM-bl cells; experiment: HIV-1 infectivity enhancement assay, β-galactosidase luminescence; assay type: cell-based; conditions: for Log10 Inf. rel. to EF-C: log10 of HIV-1 infection of TZM-bl cells relative to EF-C, Fig S15 source data, asymmetric std dev errors; for Rel-to EFC / n-fold to virus: Fig S8 panels B, D
[4] = assay type: physicochemical; conditions: STD prep
[5] = ThT fluorescence relative to blank (42.1851851851852 a.u.)
[6] = relative to blank 42.1851851851852 a.u.
[7] = Feb2021, 1.3 µM value relative to virus only (0 µM)
[8] = Feb2021, Log10 of infectivity relative to EF-C
[9] = Feb2021, log10 of infectivity relative to EF-C
[10] = Feb2021, n-fold enhancement relative to EF-C
[11] = Feb2021, n-fold infectivity relative to EF-C
[12] = Feb2021, unrounded values of the 1.3 µM column
[13] = Feb2021 run, infectivity n-fold relative to virus alone
[14] = Feb2021 run, log10 of infectivity relative to EF-C
[15] = Feb2021 run, n-fold infectivity relative to EF-C
[16] = infectivity class (low / medium / high) of each library peptide, main list in c1-c6, same classes repeated in sub-lists of sequences containing the hydrophobicity/charge patterns P+,H0,P+,H0,P0,H0,P0, P+,H0,P0,H0,P0,H0,P0, P+,H0,P0,H0
[17] = ThT fluorescence relative to blank, blank = 42.1851851851852
[18] = Feb2021, figures match the 1.3 µM column
[19] = Feb2021, infectivity enhancement relative to EF-C
[20] = Feb2021, infectivity relative to virus only
[21] = infectivity enhancement relative to EF-C
[22] = infectivity n-fold relative to virus alone
[23] = infectivity enhancement relative to EF-C (=1), Feb2021 run
[24] = infectivity n-fold relative to virus only, Feb2021 run
[25] = log10 of infectivity relative to EF-C, Feb2021 run

Substance	FTIR ß-sheet content/ % [1]	FTIR ß-sheet content/ % ([1]; ATR-FT-IR)	Tht rel to blank (42.1851851851852) [2, 5]	Tht category (> 1.5 to blank = +) ([2]; category 1/0)	Tht rel to blank (42.1851851851852) [2, 6]	n-fold to virus (Feb2021) [3, 7]	Log10 of Rel to EFC (Feb2021) [3, 8]	Rel-to EFC (Feb-2021) [3, 10]	Rel-to EFC (Feb-2021) [3, 11]	Absolute Infectivity / RLU /s (Feb2021) [3, 12]	n-fold to virus (Feb2021) [3, 13]	Log10 of Rel to EFC (Feb2021) [3, 14]	Rel-to EFC (Feb-2021) [3, 15]	infectivity [3, 16]	Log10 Inf. rel. to EF-C [3]	TEM: 1= fibrils, 0= aggregates (micelle), 0.5 = aggregates and fibrils, -1 = nothing obersved, STD prep [4]	Tht rel to blank (42.1851851851852) [2, 17]	Absolute Infectivity / RLU /s (Feb2021) [3, 18]	Rel-to EFC (Feb-2021) [3, 19]	n-fold to virus (Feb2021) [3, 20]	other results
KIKIQINMWQ [JG1]	42.41%	42% and 42.41%	5.939	1 (ThT. Cat is 1, if Rel. ThT >2)	5.939	12.47	-0.5276	0.2968	0.2968	6650 RLU /s	12.47	-0.5276	0.2968	medium	-0.5276	1	–	–	–	–	Tht category (> 1.5 to blank = +) ([2]; FigS26): 1 (Tht category (> 1.5 to blank = +)); Log10 of Rel to EFC (Feb2021) [3, 9]: -0.5276; TEM: 1= fibrils, 0= aggregates (micelle), 0.5 = aggregates and fibrils, -1 = nothing obersved, STD prep ([4]; FigS26): 1
KFKFQFW [TM71]	–	0%	3.529	1 (ThT. Cat is 1, if Rel. ThT >2)	3.529	–	-0.7899	–	0.1622	–	6.817	-0.7899	0.1622	medium	-0.7899	1	3.529	4953 RLU /s	0.1622	6.817	–
KLKQLL [KM27 / psis14]	–	0%	1.089	0 (ThT-inactive (N-Fold <2))	–	–	-2.131	–	0.00739	–	–	–	–	low	-2.131	0.5	1.089	196.7 RLU /s	0.00739	0.3105	–
CKIKQII [MG4a]	25%	25%	3.914	1 (ThT. Cat is 1, if Rel. ThT >2)	3.914	–	-1.379	0.04182	0.04182	–	1.757	-1.379	0.04182	–	-1.379	0.5	3.914	796.7 RLU /s	–	1.757	Rel-to EFC [3, 21]: 0.04182; n-fold to virus [3, 22]: 1.757; infectivity ([3]; infectivity class (low / medium / high) of the peptide in the sequence-pattern analysis, Fig. S22-A4, class limits not given): low; Rel-to EFC (Feb-2021) [3, 23]: 0.04182; n-fold to virus (Feb2021) [3, 24]: 1.757; Log10 of Rel to EFC (Feb2021) [3, 25]: -1.379
CEIEIQINMWQ [TM143]	49.9%	49.9%	3.705	1 (ThT. Cat is 1, if Rel. ThT >2)	3.705	9.188	–	–	0.2187	12066.66667 RLU /s	–	–	–	medium	-0.6602	0.5	–	–	–	–	Log10 of Rel to EFC (Feb2021) [3, 9]: -0.6602; Rel-to EFC (Feb-2021) [3, 23]: 0.2187; n-fold to virus (Feb2021) [3, 24]: 9.188; Log10 of Rel to EFC (Feb2021) [3, 25]: -0.6602
KIKQIINMWQ [JG2]	40.68%	41% and 40.68%	4.945	1 (ThT. Cat is 1, if Rel. ThT >2)	–	–	-0.4604	0.3464	0.3464	–	–	–	–	medium	-0.4604	1	4.945	9363 RLU /s	–	14.55	Tht category (> 1.5 to blank = +) ([2]; FigS26): 1 (Tht category (> 1.5 to blank = +)); Rel-to EFC [3, 21]: 0.3464; n-fold to virus [3, 22]: 14.5544; Rel-to EFC (Feb-2021) [3, 23]: 0.3464; n-fold to virus (Feb2021) [3, 24]: 14.55; Log10 of Rel to EFC (Feb2021) [3, 25]: -0.4604; TEM: 1= fibrils, 0= aggregates (micelle), 0.5 = aggregates and fibrils, -1 = nothing obersved, STD prep ([4]; FigS26): 1
KFKFQF [JJA6]	46%	46%	1.156	0 (ThT-inactive (N-Fold <2))	1.156	2.575	-1.213	0.06128	0.06128	686.7 RLU /s	2.575	-1.213	0.06128	low	-1.213	0.5	–	–	–	–	–
CKFKQFFNMWQ [CK13]	59.11%	59% and 59.11%	27.7	1 (ThT. Cat is 1, if Rel. ThT >2)	27.7	–	-0.2148	0.6098	0.6098	–	25.62	-0.2148	0.6098	medium	-0.2148	1	27.7	23486.66667 RLU /s	–	25.62	–
QCKFKQFFNM [CK11]	41.84%	42% and 41.84%	12.72	1 (ThT. Cat is 1, if Rel. ThT >2)	12.72	–	-0.3706	–	0.426	–	17.9	-0.3706	0.426	medium	-0.3706	0.5	12.72	5847 RLU /s	0.426	17.9	–
RGDSKIKIQIC [TM113 / RC11]	–	39%	13.8	–	–	–	-0.2249	0.5957	–	–	–	–	–	medium	-0.2249	–	–	–	–	–	n-fold to virus (Feb2021) ([3]; Feb2021, infectivity relative to virus only (0 µM)): 25.03 n-fold
